According to ChEMBL document CHEMBL3632480, “Optimization of an indazole series of selective estrogen receptor degraders: Tumor regression in a tamoxifen-resistant breast cancer xenograft” (Bioorg Med Chem Lett, 2015):

Key:
MCF7 [1] = assay: Decrease in estrogen receptor alpha level in human MCF7 cells after 4 hrs by in-cell western assay relative to fulvestrant; assay type: functional; details: MCF7, 4 h
MCF7 [2] = assay: Decrease in estrogen receptor alpha level in human MCF7 cells after 4 hrs by in-cell western assay; assay type: functional, cell-based; details: MCF7, 4 h
MCF7 [3] = assay: Cytotoxicity against human MCF7 cells assessed as decrease in cell viability after 5 days by celltiterGlo assay; assay type: functional, cell-based; details: MCF7, 120 h
Rattus norvegicus = assay: Decrease in uterine wet weight of CD-IGS rat at 1 mg/kg, po qd followed 15 mins later administration of 0.1 mg/kg, po 17alpha-ethynylestradiol for 3 consecutive days; assay type: functional
[4] = Fraction unbound in CD-1 mouse plasma by equilibrium dialysis; assay type: ADME, cell-free
[5] = AUC in CD-1 mouse at 10 mg/kg, po; assay type: ADME, organism-based; details: in vivo

SMILES	Emax (MCF7 [1]) [%]	EC50 (MCF7 [2]) [nM]	IC50 (MCF7 [3]) [nM]	inhibition (INH) (Rattus norvegicus) [%]	fraction unbound [4]	AUC [5] [ng·h/mL]
CC/C(=C(/c1ccc(/C=C/C(=O)O)cc1)c1cc(F)c2[nH]ncc2c1)c1ccccc1	92	6.4	7.5	–	–	–
COc1ccc(/C(=C(\c2ccc(/C=C/C(=O)O)cc2)c2ccc3[nH]nc(F)c3c2)C2CCC2)c(Cl)c1	93	0.8	2.4	90	0.001	20500
CS(=O)(=O)c1ccc(/C(=C(\c2ccc(/C=C/C(=O)O)cc2)c2ccc3[nH]nc(F)c3c2)C2CCC2)c(Cl)c1	91	0.9	2.3	29	–	140
O=C(O)/C=C/c1ccc(/C(=C(\c2ccncc2Cl)C2CCC2)c2ccc3[nH]nc(F)c3c2)cc1	90	0.3	0.8	74	0.012	1800
N#Cc1cnccc1/C(=C(\c1ccc(/C=C/C(=O)O)cc1)c1ccc2[nH]nc(F)c2c1)C1CCC1	92	1.1	3.8	22	0.1	70
Cc1cccnc1/C(=C(\c1ccc(/C=C/C(=O)O)cc1)c1ccc2[nH]nc(F)c2c1)C1CCC1	88	0.8	4.2	–	–	190
N#Cc1cc(Cl)cnc1/C(=C(\c1ccc(/C=C/C(=O)O)cc1)c1ccc2[nH]nc(F)c2c1)C1CCC1	93	0.4	1.1	–	–	250
CC/C(=C(/c1ccc(/C=C/C(=O)O)cc1)c1ccc2[nH]ncc2c1Cl)c1ccccc1	93	0.8	1.6	–	–	18000
O=C(O)/C=C/c1ccc(/C(=C(\c2ncccc2Cl)C2CCC2)c2ccc3[nH]nc(F)c3c2)cc1	90	0.3	1.2	83	0.032	900
CC(C)/C(=C(/c1ccc(/C=C/C(=O)O)cc1)c1ccc2[nH]ncc2c1)c1ccccc1	91	4.3	4	–	–	–
N#Cc1cc(F)ccc1/C(=C(\c1ccc(/C=C/C(=O)O)cc1)c1ccc2[nH]nc(F)c2c1)C1CCC1	92	0.3	1.2	57	0.021	760
O=C(O)/C=C/c1ccc(/C(=C(\c2ccccc2)C2CCC2)c2ccc3[nH]ncc3c2)cc1	89	0.3	1.4	–	–	–
CC/C(=C(/c1ccc(/C=C/C(=O)O)cc1)c1ccc2[nH]ncc2n1)c1ccccc1	88	20	33	–	–	–
CCCC/C(=C(/c1ccc(/C=C/C(=O)O)cc1)c1ccc2[nH]ncc2c1)c1ccccc1	92	11	10	–	–	–
C[C@]12CC[C@@H]3c4ccc(O)cc4C[C@@H](CCCCCCCCC[S+]([O-])CCCC(F)(F)C(F)(F)F)[C@H]3[C@@H]1CC[C@@H]2O (stereo partly drawn) [FULVESTRANT]	100	0.4	0.6	–	–	–
O=C(O)/C=C/c1ccc(/C(=C(\c2ncc(F)cc2Cl)C2CCC2)c2ccc3[nH]nc(F)c3c2)cc1	89	0.6	1.7	–	–	–
O=C(O)/C=C/c1ccc(/C(=C(\c2ncc(Cl)cc2Cl)C2CCC2)c2ccc3[nH]nc(F)c3c2)cc1	91	0.8	3.5	80	0.011	15600
COC/C(=C(/c1ccc(/C=C/C(=O)O)cc1)c1ccc2[nH]ncc2c1)c1ccccc1	86	35	88	–	–	–
CC/C(=C(/c1ccc(/C=C/C(=O)O)cc1)c1ccc2[nH]ncc2c1OC)c1ccccc1	91	19	55	–	–	–
O=C(O)/C=C/c1ccc(/C(=C(\c2ccccc2)C(F)F)c2ccc3[nH]ncc3c2)cc1	91	4.7	14	–	–	–
O=C(O)/C=C/c1ccc(/C(=C(\c2ccccc2)C2CCCC2)c2ccc3[nH]ncc3c2)cc1	90	9.3	10	–	–	–

SMILES	Emax (MCF7 [1]) [%]	EC50 (MCF7 [2]) [nM]	IC50 (MCF7 [3]) [nM]	inhibition (INH) (Rattus norvegicus) [%]	fraction unbound [4]	AUC [5] [ng·h/mL]
CC/C(=C(/c1ccc(/C=C/C(=O)O)cc1)c1ccc2[nH]ncc2c1)c1ccccc1	90	–	7.2	–	–	–
CCC/C(=C(/c1ccc(/C=C/C(=O)O)cc1)c1ccc2[nH]ncc2c1)c1ccccc1	92	4.6	11	–	–	–
O=C(O)/C=C/c1ccc(/C(=C(/CCO)c2ccccc2)c2ccc3[nH]ncc3c2)cc1	–	> 1000	> 1000	–	–	–
O=C(O)/C=C/c1ccc(/C(=C(\c2ccccn2)C2CCC2)c2ccc3[nH]nc(F)c3c2)cc1	90	7.6	22	–	–	–
CC/C(=C(/c1ccc(/C=C/C(=O)O)cc1)c1ccc2[nH]ncc2c1)c1ccc(F)cc1Cl [BRILANESTRANT]	90	–	2.5	79	0.011	–
C/C(=C(/c1ccc(/C=C/C(=O)O)cc1)c1ccc2[nH]ncc2c1)c1ccccc1	92	26	40	–	–	–
O=C(O)/C=C/c1ccc(/C(=C(/CCCl)c2ccccc2)c2ccc3[nH]ncc3c2)cc1	90	1.4	9	–	–	–
COCC/C(=C(/c1ccc(/C=C/C(=O)O)cc1)c1ccc2[nH]ncc2c1)c1ccccc1	92	47	63	–	–	–
O=C(O)/C=C/c1ccc(/C(=C(/CCF)c2ccccc2)c2ccc3[nH]ncc3c2)cc1	91	1.4	2.1	–	–	–
O=C(O)/C=C/c1ccc(/C(=C(\c2ccccc2)C2CC2)c2ccc3[nH]ncc3c2)cc1	89	2.8	13	–	–	–
CC/C(=C(/c1ccc(/C=C/C(=O)O)cc1)c1ccc2[nH]nc(F)c2c1)c1ccccc1	90	1.1	5	–	–	14000
O=C(O)/C=C/c1ccc(/C(=C(\c2ccc(C(F)(F)F)cc2Cl)C2CCC2)c2ccc3[nH]nc(F)c3c2)cc1	94	3	8.2	–	–	–
O=C(O)/C=C/c1ccc(/C(=C(\c2ccc(F)cc2Cl)C2CCC2)c2ccc3[nH]nc(F)c3c2)cc1	91	0.6	2	–	–	–
CC/C(=C(/c1ccc(/C=C/C(=O)O)cc1)c1cc(C)c2[nH]ncc2c1)c1ccccc1	89	19	59	–	–	–
CC/C(=C(/c1ccc(/C=C/C(=O)O)cc1)c1ccc2[nH]ncc2c1C#N)c1ccccc1	91	0.5	1.5	–	–	500
O=C(O)/C=C/c1ccc(/C(=C(\c2ccccc2)C2CCCCC2)c2ccc3[nH]ncc3c2)cc1	86	25	64	–	–	–
O=C(O)/C=C/c1ccc(/C(=C(\c2ncccc2C(F)(F)F)C2CCC2)c2ccc3[nH]nc(F)c3c2)cc1	89	0.3	1.1	–	0.048	690
CC/C(=C(/c1ccc(/C=C/C(=O)O)cc1)c1cc(Cl)c2[nH]ncc2c1)c1ccccc1	92	18	56	–	–	–
CC/C(=C(/c1ccc(/C=C/C(=O)O)cc1)c1ccc2[nH]ncc2c1C)c1ccccc1	90	13	50	–	–	–
CC/C(=C(/c1ccc(/C=C/C(=O)O)cc1)c1ccc2[nH]ncc2c1F)c1ccccc1	89	0.9	3	–	–	8200
O=C(O)/C=C/c1ccc(/C(=C(\c2ccccc2)C(F)(F)F)c2ccc3[nH]ncc3c2)cc1	92	3.1	5.5	–	–	–
